Laboratory results from USRE43688E1 (The Regents of the University of California, priority 2006, dated 2012).
“And” between values parts separate entries of the source, which are not always exact repeats. Identical values can stand only once.

Experiments:
[1] = Blood analysis of the monkey PET study (plasma parent and metabolites); format: in vivo, Rhesus monkey
Method: A blood analysis of the monkey PET study subsequent to administration of ^18F-mefway was performed to observe levels of breakdown in the blood similar to methods described for ^18F-fallypride. Venous whole blood (approx. 1 mL) was obtained at various time-points (5, 10, 15, 30, 45, 60, 90, 120, 150 and 180 min) during the course of the PET study. The samples were centrifuged in a Microfuge centrifuge (Eppendorf Centrifuge 5415C) at 12,000 rpm for 5 min. Plasma, 0.6 mL was separated from each sample and 0.1 mL was counted from each sample. […]. The remaining 0.5 mL of plasma at each time point was combined with 0.1 mL NaHCO3 and mixed well and subsequently extracted with 0.4 mL of ethyl acetate. The ethyl acetate was separated and 0.1 mL of ethyl acetate layer and 0.1 mL of aqueous layer were counted for analysis of ^18F-mefway in blood. […] The developed TLC plate was dried, apposed overnight to phosphor screen, and were read using the Phosphor Cyclone Imager (Packard Instruments Co., Boston Mass.). The amount of ^18F-mefway was evaluated in digital light units (DLU/mm^2) using Opti-Quant acquisition and analysis program (Packard Instruments Co.). All blood samples were counted for radioactivity in a Packard Gamma Counter 5000 series.

[2] = Lipophilicity (log P) by partitioning between n-octanol and Tris-HCl buffer; format: physicochemical; settings: n-octanol and 50 M Tris-HCl (pH 7.4) buffer
Method: Lipophilicity (log P) was measured to evaluate lipid solubility of ^18F-mefway. The lipophilicity was measured by partitioning between n-octanol and […] Tris-HCl (pH 7.4) buffer. Into three tubes 2 mL of n-octanol and 2 mL of buffer were added and vortexed. To this mixture 370 kBq of ^18F-mefway was added. The mixture was again vortexed and allowed to settle. The layers were separated and the aqueous layer was centrifuged again to remove n-octanol contamination. An aliquot of both layers was counted for concentration of ^18F-mefway using the Cobra Quantum well counter (Packard Instruments Co., Boston, Mass.). Log P was taken as the concentration of ^18F-mefway in n-octanol over concentration of buffer.

[3] = target: T1, 5-HT1A receptors (Macaca mulatta, UniProt F7GIU0); test: Monkey PET study with ^18F-mefway; format: in vivo, Rhesus monkey
T1 construct: from tissue; host or cells: brain of a living anaesthetised Rhesus monkey (PET)
T1 sequence (F7GIU0 1-421): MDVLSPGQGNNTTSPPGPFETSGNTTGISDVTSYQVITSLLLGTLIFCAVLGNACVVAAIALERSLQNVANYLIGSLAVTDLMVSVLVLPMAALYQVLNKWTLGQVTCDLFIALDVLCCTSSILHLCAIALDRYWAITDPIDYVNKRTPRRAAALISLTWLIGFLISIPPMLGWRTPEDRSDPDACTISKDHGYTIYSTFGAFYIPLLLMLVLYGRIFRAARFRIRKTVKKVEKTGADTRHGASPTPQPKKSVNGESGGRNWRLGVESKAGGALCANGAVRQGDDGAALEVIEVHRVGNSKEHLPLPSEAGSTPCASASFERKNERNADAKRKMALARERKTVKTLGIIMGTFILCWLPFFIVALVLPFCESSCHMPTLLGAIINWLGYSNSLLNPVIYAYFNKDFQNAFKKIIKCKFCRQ
Method: In vivo studies were performed in a Rhesus monkey. The monkey was anesthetized using ketamine (10 mg/kg) and xylazine (0.5 mg/kg) and maintained on 1-1.5% isoflurane. Two intravenous catheters were placed, one on each arm, for administration of the radiopharmaceutical and for obtaining blood samples during the study. Vital signs of the money were monitored carefully. […] The head of the animal was placed in the gantry of an ECAT EXACT HR+PET scanner and positioned in place with the use of adhesive tape. A transmission scan using a Ge-68/Ga-68 rod source was acquired prior to administration of the radiopharmaceutical to correct for tissue attenuation of the coincident radiation. A dynamic sequence of scans was acquired for 180 minutes after administration of 130 MBq of ^18F-Mefway intravenously (specific activity=74-111 GBq/μmol). Data in the final form were expressed in units of percent-injected dose/mL or kBq/mL. Areas showing maximal radioligand binding in the frontal cortex, temporal cortex, dorsal raphe and other braain regions were delineated in the images. The PET images were coregistered with an MRI image template of the rhesus monkey in order to provide anatomical detail as reported previously. This MRI template of the rhesus (Macaca mulatta) brain is an average of 6 monkeys with T1-weighted MR scans. PET image summed till 120 min duration was used for the coregistration. Coregistration of the PET-MR data was carried out by VINCI program (CPS Innovations, Inc.). Time activity curves were obtained for all of these regions.

[4] = Defluorination of ^18F-mefway in in vitro and in vivo experiments; settings: numerous in vitro and in vivo experiments
[5] = target: T2, 5HT1A receptor (Rattus norvegicus, UniProt P19327); test: Competitive binding assay in rat brain slices using ^18F-mefway as the radioligand (autoradiography); settings: 167 kBq/mL ^18F-mefway, 37° C. 1 hour, measured autoradiographically in the hippocampus (FIG. 5), read-out: Binding affinity (IC50) against ^18F-mefway
T2 construct: from tissue; host or cells: 10 um horizontal brain slices of Sprague-Dawley rats
T2 sequence (P19327 1-422): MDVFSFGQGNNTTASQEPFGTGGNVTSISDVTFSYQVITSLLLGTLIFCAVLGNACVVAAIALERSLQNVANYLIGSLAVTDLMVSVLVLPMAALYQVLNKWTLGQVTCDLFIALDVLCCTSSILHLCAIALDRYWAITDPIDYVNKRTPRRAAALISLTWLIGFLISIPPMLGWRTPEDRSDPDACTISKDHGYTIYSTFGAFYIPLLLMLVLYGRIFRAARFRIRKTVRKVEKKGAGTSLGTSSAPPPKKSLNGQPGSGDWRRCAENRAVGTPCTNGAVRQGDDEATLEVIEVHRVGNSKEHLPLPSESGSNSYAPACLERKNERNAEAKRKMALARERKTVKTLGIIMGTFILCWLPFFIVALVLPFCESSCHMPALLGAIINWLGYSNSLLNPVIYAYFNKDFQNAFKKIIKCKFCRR
Method: In vitro binding affinity of mefway was measured in rat brain slices labeled with fluorine-18. The brains from Sprague-Dawley rats were extracted and frozen in isopentane at −20° C. Several 10 μm thick horizontal rat brain slices were pre-incubated at room temperature for 15 minutes in 50 mM Tris-HCl buffer (pH 7.4). […] After incubation slides were washed twice with cold buffer for one minute, dipped in cold water, air dried, and exposed to phosphor storage screens for 24 hours. Autoradiographs were generated using the Packard Phosphor Cyclone Imager, and the apposed phosphor screens were read by the Cyclone Storage Phosphor System. […] Binding affinity (IC50) was calculated using KELL program (BioSoft Inc).

[6] = target: T2, 5HT1A receptor; test: Competition study of serotonin with ^18F-mefway in rat brain slices; format: binding
Method: Male Sprague-Dawley rats (200-250 g) were anesthetized and decapitated, the brain was rapidly removed and frozen in isopentane at −20° C. Horizontal slices were cut 10 μm thick using a Leica 1850 cryotome. Slices contained the regions of cortex, hippocampus, and other regions known to contain 5-HT1A receptors. Brain slices were stored at −20° C. Brain slices were preincubated in 50 mM Tris-HCl buffer (pH 7.4) for 10 mins. The slices were then incubated with 130-148 kBq/mL of ^18F-mefway at 37° C. for 1 hr. […] After incubation, slides were washed twice (one minute for both washes) with ice-cold buffer. Slides were then quickly dipped in cold deionized water, air dried, and exposed to a phosphor screen for 24 hours. The autoradiographs were generated using the Phosphor Cyclone Imager (Packard Instruments Co., Boston Mass.). The amount of binding was evaluated in digital light units (DLU/mm^2) using OptiQuant accusation and analysis program (Packard Instruments Co.) Autoradiographs were quantified using a computer-based image analysis system (OptiQuant Version 4.0 Packard Instruments Co., Boston Mass.).

[7] = target: T2, 5HT1A receptor; test: Rodent studies with trans-^18F-mefway, rat brain slices; format: binding; settings: cerebellum as reference region
Text: (§1) Binding of trans-^18F-mefway was evident in several 5HT1A receptor-rich regions, including hippocampus and cortex. Using cerebellum as a reference region, rat brain slices gave ratios of hippocampus/cerebellum=55 and cortex/cerebellum=17. Studies in transgenic mouse models of Alzheimer's disease show >90% loss in 5HT1a receptor binding (data not shown).

[8] = target: T3, 5HT1a receptor (Mus musculus, UniProt Q64264); test: trans-^18F-mefway binding in transgenic mouse models of Alzheimer's disease; settings: transgenic mouse models of Alzheimer's disease (data not shown)
T3 construct: from tissue
T3 sequence (Q64264 1-421): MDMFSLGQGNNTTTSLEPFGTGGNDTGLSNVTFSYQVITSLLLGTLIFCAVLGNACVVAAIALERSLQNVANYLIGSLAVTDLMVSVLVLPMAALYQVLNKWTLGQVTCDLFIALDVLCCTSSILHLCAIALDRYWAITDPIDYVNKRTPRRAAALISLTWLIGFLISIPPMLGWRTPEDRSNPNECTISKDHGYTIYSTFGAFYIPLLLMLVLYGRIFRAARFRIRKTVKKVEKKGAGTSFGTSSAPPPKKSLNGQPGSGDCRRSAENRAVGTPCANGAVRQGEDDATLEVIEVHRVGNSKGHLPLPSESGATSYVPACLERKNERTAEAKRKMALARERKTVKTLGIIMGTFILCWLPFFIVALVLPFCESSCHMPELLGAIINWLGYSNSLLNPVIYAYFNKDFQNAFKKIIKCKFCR
Text: as §1

O=C(O)C1CCC(C[18F])CC1 (stereo not shown) [^18F-4-fluoromethylcyclohexane carboxylic acid]
plateau of acid metabolite (aqueous fraction) in plasma ([1]; after 50 mins post-injection): 50-60%

COc1ccccc1N1CCN(CCN(C(=O)C2CCC(C[18F])CC2)c2ccccn2)CC1 (stereo not shown) [^18F-mefway, N-{2-[4-(2-methoxyphenyl)piperazinyl]ethyl}-N-(2-pyridyl)-N-(4-^18F-fluoromethylcyclohexane)carboxamide]
Lipophilicity (Log P) [2]: 2.62±0.06 | raphe ratio (to cerebellum) ([3]; PET): 3.5 | time of peak of ratios, second group of regions ([3]; PET): around 80 mins | ratio of hippocampus to cerebellum ([3]; PET, at pseudoequilibrium): exceeded 9 | time to reach uptake level in various regions ([3]; PET, brain uptake after i.v. administration): less than 2 mins | hippocampus to cerebellum ratio, peak ([3]; PET, peak): 9.7 | uptake level in various brain regions ([3]; PET, reached in less than 2 mins): greater than 0.03 % injected dose/mL | ratio to cerebellum, thalamus, striatum and raphe ([3]; PET, third group of regions): 2-3.5 | initial activity in the cerebellum still present ([3]; after 3 hrs): about 6% | vital signs of the monkey ([3]; anesthetized Rhesus monkey during PET study): did not show any unusual deviations from baseline values | hippocampus to cerebellum ratio at end of scan ([3]; end of the 3 hr scan): 8.4 | initial activity in the hippocampus still specifically bound ([3]; end of the 3 hr scan): approx 60% | time of approach to pseudoequilibrium / plateau of ratio in receptor-rich regions ([3]; hippocampus (and cortical hot spot), PET, 130 MBq i.v.): around 80 mins | ^18F-mefway remaining unmetabolized in plasma ([1]; 3 hours post injection): approximately 30% | defluorination [4]: virtually no deflourination

COc1ccccc1N1CCN(CCN(C(=O)C2CCC(CF)CC2)c2ccccn2)CC1 (stereo not shown) [mefway, N-{2-[4-(2-methoxyphenyl)piperazinyl]ethyl}-N-(2-pyridyl)-N-(4-fluoromethylcyclo-hexane)-carboxamide]
IC50 [5]: 32.1 nM and 25.7 nM

NCCc1c[nH]c2ccc(O)cc12 [serotonin]
displaced ^18F-mefway binding in cortex ([6]; cortex): > 70% | displaced ^18F-mefway binding in hippocampus ([6]; hippocampus): > 85%

COc1ccccc1N1CCN(CCN(C(=O)C2CCC(CF)CC2)c2ccccn2)CC1 (stereo not drawn) [trans-^18F-mefway]
cortex/cerebellum ratio [7]: 17 | hippocampus/cerebellum ratio [7]: 55 | loss in 5HT1a receptor binding [8]: > 90%
